Patent publication US20220339176A1, “Methods of Treatments to Prolong Gestation and Complications of Menstruation or Gestation” (priority 2019, published 2022)
Entries after “also recorded” stand apart in the source; their conditions may differ. Where a name gives a salt, the structure may show the parent alone.

Experiments:
Pregnant C57BL/6 mice [1] = test: treatment of healthy control mice (no LPS administration); type: in vivo; settings: 1.5 mg/mouse intraperitoneal every 24 hours
Experimental: (§1) Provided in FIGS. 8A and 8B are an experimental schematic and results of tocolytic compound treatment in mouse models of severe preterm birth. In separate experiments, pregnant C57BL/6 mice were intraperitoneally administered 3 mg/kg LPS (Escherichia coli 0127:B8, chromatographically pure, Sigma-Aldrich) or PBS (as control) on D15. Treated mice were then treated with either intraperitoneal injections of vehicle or androstane-3,17-diol (1.5 mg/mouse). The androstane-3,17-diol group received […] via intraperitoneal injections every 24 hours, up to 3 days before delivery. One-third (33%) of LPS-induced preterm mice treated with androstane-3,17-diol reached full term.

[2] = test system: uterine muscle strips from pregnant WT mice; test: myography of uterine muscle strips, oxytocin dose-response; design: species or system mouse; settings: D18 strips
Experimental: (§2) Uterine muscle strips were extracted from pregnant mice and were assessed for contractibility via myography. Timed-pregnant wild-type C57/B6 mice were euthanized before making a vertical midline abdominal incision and removing each of the two uterine horns. Uterine horns were subsequently cut into 3-mm×7-mm segments and placed in a modified Krebs buffer (118 mM NaCl, […], 1.2 mM MgSO4, 1.2 mM KH2PO4, 2.5 mM CaCl2), 25 mM NaHCO3, and 11 mM glucose, pH 7.4). Muscle segments were vertically suspended on custom-made stainless steel hooks inside an organ bath filled with modified Krebs buffer, maintained at 37° C., and aerated with gas containing 95% O2 and 5% CO2. The strips were allowed to equilibrate at 1.5 g of tension for 45 min.
For the oxytocin dose-response experiments, the strips were then stimulated with oxytocin at concentrations ranging from 1 to 1000 nM, and the pattern of contraction in response to each dose was recorded for 9 min. The muscle strips were washed with Krebs solution twice and allowed to equilibrate for 3 min before the next stimulation. In separate experiments, strips were treated with the compounds before assessing the dose response to oxytocin. Contraction tracings were recorded using PowerLab and LabChart (ADInstruments).
Provided in FIGS. 5B and 5C are results of a myography experiment measuring spontaneous contractions induced by oxytocin. Myography of uterine muscle strips from pregnant WT mice at D18 was performed while incubating the strips with increasing doses of oxytocin in the presence of 1 μM Androstane-3,17-diol (black squares) or vehicle (black circles), n=4 to 7. The results are provided as old increase in area under the curve AUC (FIG. 5B), and amplitude (FIG. 5C) from baseline spontaneous contractions with vehicle and Androstane-3,17-diol. […]

Pregnant C57BL/6 mice [3] = test: mouse model of severe preterm birth (3 mg/kg LPS); type: in vivo; settings: 3 mg/kg LPS on D15
Experimental: Provided in FIG. 7 is an experimental schematic of compound treatment in mouse models of severe preterm birth. In separate experiments, pregnant C57BL/6 mice were intraperitoneally administered 3 mg/kg LPS (Escherichia coli 0127:B8, chromatographically pure, Sigma-Aldrich) or PBS (as control) on D15. Treated mice were then treated with either intraperitoneal injections of vehicle (200 μl, 15% DMSO in pharmaceutical sesame oil) or androstane-3,17-diol (1.5 mg/mouse, 200 μl) every 12 hours, up to 5 doses before delivery.
as §1

[4] = test system: human uterine smooth muscle cells; test: collagen gel contraction assay; type: cell-based
[5] = test system: uterine muscle strips from pregnant WT mice; test: myography of uterine muscle strips, spontaneous contraction; design: species or system mouse
Experimental: as §2
Provided in FIG. 5A are results of a myography experiment measuring spontaneous contraction. Myography of uterine muscle strips from pregnant WT mice at D18 was performed while incubating the strips with oxytocin (OXY), Vehicle, 0.25 μM μM of DHEA-S, 1 μM of THDOC, 1 μM of estriol-16-glucuronide, or 1 μM of androstane-3,17-diol. The area under the curve was calculated for the final 180 s of each 9-min contraction tracing using GraphPad Prism (GraphPad Prism for Macintosh version 5.0; GraphPad Software). The area under the curve for each response was then normalized to the area under the curve of the baseline.
Provided in FIG. 5E are myography tracings recorded with various compound applications: 10 μM progesterone, 1 μM Androstane-3,17-diol, 0.5 μM Androstane-3,17-diol+5 μM progesterone, and 0.33 μM Androstane-3,17-diol+0.33 μM THDOC+3.3 μM progesterone. Left of the arrow is baseline contraction and to the right of the arrow indicates when the compounds were applied. […] Note that there was no obvious effect when treating the muscle with 1 μM progesterone (data not shown).

Pregnant C57BL/6 mice [6] = test: mouse model of moderate preterm birth (2 mg/kg LPS); type: in vivo; settings: for gestation in vivo: 2 mg/kg LPS on D15, compounds intraperitoneal every 8 hours beginning 8 hours after LPS
Experimental: Provided in FIGS. 6A and 6B are an experimental schematic and results of compound treatment in mouse models of moderate preterm birth. Pregnant C57BL/6 mice were intraperitoneally administered 2 mg/kg LPS (Escherichia coli 0127:B8, chromatographically pure, Sigma-Aldrich) or PBS (as control) on D15. Mice were then treated with either intraperitoneal injections of vehicle (100 μl, 30% DMSO in pharmaceutical sesame oil), DHEA-S(first two doses at 0.8 mg/mouse, later doses at 0.4 mg/mouse, 100 μl), THDOC (first two doses at 0.8 mg/mouse, later doses at 0.4 mg/mouse, 100 μl), estriol-16-glucuronide (first two doses at 0.8 mg/mouse, later doses at 0.4 mg/mouse, 100 μl), androstane-3,17-diol (1.5 mg/mouse, 100 μl), Androstane-3,17-diol+progesterone (each at 0.75 mg/mouse, 100 μl), or DHEA-S+androstane-3,17-diol+progesterone (androstane-3,17-diol and progesterone each at 0.75 mg/mouse, DHEA-S at 0.27 mg/mouse for the first two doses and then 0.13 mg/mouse for the later does, 100 μl). Compound groups received the compounds via intraperitoneal injections every 8 hours, beginning 8 hours after LPS administration, up to 4 doses, and then after 12 hours before delivery.

[7] = 2 mg/kg LPS on D15, compounds intraperitoneal

C[C@]12CC[C@@H](O)C[C@@H]1CC[C@@H]1[C@@H]2CC[C@]2(C)[C@@H](O)CC[C@@H]12 (stereo in doubt) [androstane-3,17-diol]
gestation period (Pregnant C57BL/6 mice [1]): increased gestation period beyond the typical date of delivery | effect on oxytocin-induced uterine contractility (AUC and amplitude from baseline) ([2]; increasing doses of oxytocin, 1 μM Androstane-3,17-diol): reduced; also recorded: inhibits uterine muscle contraction with oxytocin stimulation | mice that reached full-term (Pregnant C57BL/6 mice [3]; 1.5 mg/mouse intraperitoneal every 12 hours, up to 5 doses): 1/3 | appearance of mom and pups (Pregnant C57BL/6 mice [3]; 1.5 mg/mouse intraperitoneal every 12 hours, the mouse that reached full-term): both mom and pups looked healthy | LPS-induced preterm mice that reached full term (Pregnant C57BL/6 mice [3]; 1.5 mg/mouse intraperitoneal every 24 hours, up to 3 days): 33% | ability to mitigate collagen retraction (gel surface area relative to no cell control) ([4]; oxytocin 100 nM, 18 hours, 2.5 μM DHEA-S, 10 μM THDOC, 10 μM estriol-16-glucuronide, 10 μM androstane-3,17-diol, 2 mM progesterone): provided the best results | muscle contractility in myography tracings ([5]; 1 μM Androstane-3,17-diol): rapid inhibition of the muscle contraction | suppression of uterine contractility (area under the curve normalized to baseline) ([5]; D18 strips, 0.25 μM DHEA-S, 1 μM THDOC, 1 μM estriol-16-glucuronide, 1 μM androstane-3,17-diol): most significant inhibition effect | birth outcome of preterm model females (Pregnant C57BL/6 mice [6]; [7]): Full-term live pups were birthed | comparison of gestation results between treatment groups (Pregnant C57BL/6 mice [6]; [7]): most significant results | gestation in vivo (Pregnant C57BL/6 mice [6]): prolonged gestation in vivo

C[C@]12CC[C@H](OS(=O)(=O)O)CC1=CC[C@@H]1[C@@H]2CC[C@]2(C)C(=O)CC[C@@H]12 [DHEA-S, dehydroisoandrosterone sulfate]
birth outcome of preterm model females (Pregnant C57BL/6 mice [6]; [7]): Full-term live pups were birthed | gestation in vivo (Pregnant C57BL/6 mice [6]): prolonged gestation in vivo

CC[C@H](C)[C@@H]1NC(=O)[C@H](Cc2ccc(O)cc2)NC(=O)[C@@H](N)CSSC[C@@H](C(=O)N2CCC[C@H]2C(=O)N[C@@H](CC(C)C)C(=O)NCC(N)=O)NC(=O)[C@H](CC(N)=O)NC(=O)[C@H](CCC(N)=O)NC1=O [Oxytocin, oxytocin, reference compound]
uterine contractility (AUC, amplitude) ([2]; oxytocin 1 to 1000 nM, vehicle): induced a dose-dependent increase in uterine contractility

C[C@]12CC[C@@H](O)C[C@H]1CC[C@@H]1[C@@H]2CC[C@]2(C)[C@@H](C(=O)CO)CC[C@@H]12 [THDOC, tetrahydrodeoxycorticosterone]
gestation in vivo (Pregnant C57BL/6 mice [6]): prolonged gestation in vivo

CC(=O)[C@H]1CC[C@H]2[C@@H]3CCC4=CC(=O)CC[C@]4(C)[C@H]3CC[C@]12C [progesterone, reference compound]
effect on uterine muscle contraction with oxytocin stimulation ([2]; increasing doses of oxytocin, 10 μM progesterone, n=3): but progesterone inhibits uterine muscle contraction | ability to mitigate collagen retraction ([4]; progesterone at the same concentration as androstane-3,17-diol (10 μM)): no effect | muscle contractility in myography tracings ([5]; 1 μM progesterone): no effects | muscle contractility in myography tracings ([5]; 10 μM progesterone): first enhanced and then gradually suppressed in peak height
